Data reported in ChEMBL document CHEMBL2346657, “Synthesis of novel 2-amino-4-(5'-substituted 2'-phenyl-1H-indol-3'-yl)-6-aryl-4H-pyran-3-carbonitrile derivatives as antimicrobial and antioxidant agents” (2013).
Active and inactive are the calls of the source. How the calls were made is not given here.

How the values were obtained:
Assay type in all cases: functional
[1] = system: Aspergillus oryzae; experiment: Antimicrobial activity against Aspergillus oryzae MTCC 3567 at 1000 ug/ml after 72 hrs by cup plate method; conditions: MTCC 3567, 72 h, read-out: IZ
[2] = system: Aspergillus oryzae; experiment: Antimicrobial activity against Aspergillus oryzae MTCC 3567 at 500 ug/ml after 72 hrs by cup plate method; conditions: MTCC 3567, 72 h, read-out: IZ
[3] = system: Pseudomonas aeruginosa; experiment: Antimicrobial activity against Pseudomonas aeruginosa MTCC 1688 at 1000 ug/ml after 24 hrs by cup plate method; conditions: MTCC 1688, 24 h, read-out: IZ
[4] = system: Pseudomonas aeruginosa; experiment: Antimicrobial activity against Pseudomonas aeruginosa MTCC 1688 at 500 ug/ml after 24 hrs by cup plate method; conditions: MTCC 1688, 24 h, read-out: IZ
[5] = system: Staphylococcus aureus; experiment: Antimicrobial activity against Staphylococcus aureus ATCC 29513 at 500 ug/ml after 24 hrs by cup plate method; conditions: ATCC 29513, 24 h, read-out: IZ
[6] = system: Aspergillus terreus; experiment: Antimicrobial activity against Aspergillus terreus MTCC 1782 at 750 ug/ml after 72 hrs by cup plate method; conditions: MTCC 1782, 72 h, read-out: IZ
[7] = system: Klebsiella pneumoniae; experiment: Antimicrobial activity against Klebsiella pneumoniae NCTC 13368 at 500 ug/ml after 24 hrs by cup plate method; conditions: NCTC 13368, 24 h, read-out: IZ
[8] = Antioxidant activity assessed as metal chelating activity by measuring inhibition of ferrozine-Fe2+ complex formation at 25 to 100 ug/ml
[9] = system: Pseudomonas aeruginosa; experiment: Antimicrobial activity against Pseudomonas aeruginosa MTCC 1688 at 750 ug/ml after 24 hrs by cup plate method; conditions: MTCC 1688, 24 h, read-out: IZ
[10] = system: Aspergillus flavus; experiment: Antimicrobial activity against Aspergillus flavus MTCC 1973 at 1000 ug/ml after 72 hrs by cup plate method; conditions: MTCC 1973, 72 h, read-out: IZ
[11] = system: Klebsiella pneumoniae; experiment: Antimicrobial activity against Klebsiella pneumoniae NCTC 13368 at 750 ug/ml after 24 hrs by cup plate method; conditions: NCTC 13368, 24 h, read-out: IZ
[12] = system: Aspergillus niger; experiment: Antimicrobial activity against Aspergillus niger MTCC 281 at 500 ug/ml after 72 hrs by cup plate method; conditions: MTCC 281, 72 h, read-out: IZ
[13] = system: Escherichia coli; experiment: Antimicrobial activity against Escherichia coli MTCC 723 at 500 ug/ml after 24 hrs by cup plate method; conditions: MTCC 723, 24 h, read-out: IZ
[14] = system: Escherichia coli; experiment: Antimicrobial activity against Escherichia coli MTCC 723 at 750 ug/ml after 24 hrs by cup plate method; conditions: MTCC 723, 24 h, read-out: IZ
[15] = system: Aspergillus niger; experiment: Antimicrobial activity against Aspergillus niger MTCC 281 at 1000 ug/ml after 72 hrs by cup plate method; conditions: MTCC 281, 72 h, read-out: IZ
[16] = system: Aspergillus flavus; experiment: Antimicrobial activity against Aspergillus flavus MTCC 1973 at 750 ug/ml after 72 hrs by cup plate method; conditions: MTCC 1973, 72 h, read-out: IZ
[17] = system: Aspergillus terreus; experiment: Antimicrobial activity against Aspergillus terreus MTCC 1782 at 500 ug/ml after 72 hrs by cup plate method; conditions: MTCC 1782, 72 h, read-out: IZ
[18] = system: Escherichia coli; experiment: Antimicrobial activity against Escherichia coli MTCC 723 at 1000 ug/ml after 24 hrs by cup plate method; conditions: MTCC 723, 24 h, read-out: IZ
[19] = system: Aspergillus terreus; experiment: Antimicrobial activity against Aspergillus terreus MTCC 1782 at 1000 ug/ml after 72 hrs by cup plate method; conditions: MTCC 1782, 72 h, read-out: IZ
[20] = system: Klebsiella pneumoniae; experiment: Antimicrobial activity against Klebsiella pneumoniae NCTC 13368 at 1000 ug/ml after 24 hrs by cup plate method; conditions: NCTC 13368, 24 h, read-out: IZ
[21] = system: Staphylococcus aureus; experiment: Antimicrobial activity against Staphylococcus aureus ATCC 29513 at 750 ug/ml after 24 hrs by cup plate method; conditions: ATCC 29513, 24 h, read-out: IZ
[22] = system: Aspergillus niger; experiment: Antimicrobial activity against Aspergillus niger MTCC 281 at 750 ug/ml after 72 hrs by cup plate method; conditions: MTCC 281, 72 h, read-out: IZ
[23] = system: Aspergillus oryzae; experiment: Antimicrobial activity against Aspergillus oryzae MTCC 3567 at 750 ug/ml after 72 hrs by cup plate method; conditions: MTCC 3567, 72 h, read-out: IZ
[24] = system: Staphylococcus aureus; experiment: Antimicrobial activity against Staphylococcus aureus ATCC 29513 at 1000 ug/ml after 24 hrs by cup plate method; conditions: ATCC 29513, 24 h, read-out: IZ
[25] = system: Aspergillus flavus; experiment: Antimicrobial activity against Aspergillus flavus MTCC 1973 at 500 ug/ml after 72 hrs by cup plate method; conditions: MTCC 1973, 72 h, read-out: IZ

Compound | zone of inhibition at 1000 µg/mL [1] [mm] | zone of inhibition at 500 µg/mL [2] [mm] | zone of inhibition at 1000 µg/mL [3] [mm] | zone of inhibition at 500 µg/mL [4] [mm] | zone of inhibition at 500 µg/mL [5] [mm] | zone of inhibition at 750 µg/mL [6] [mm] | zone of inhibition at 500 µg/mL [7] [mm] | Activity [8] | zone of inhibition at 750 µg/mL [9] [mm] | zone of inhibition at 1000 µg/mL [10] [mm] | zone of inhibition at 750 µg/mL [11] [mm] | zone of inhibition at 500 µg/mL [12] [mm] | zone of inhibition at 500 µg/mL [13] [mm] | zone of inhibition at 750 µg/mL [14] [mm] | zone of inhibition at 1000 µg/mL [15] [mm] | zone of inhibition at 750 µg/mL [16] [mm] | zone of inhibition at 500 µg/mL [17] [mm] | zone of inhibition at 1000 µg/mL [18] [mm] | zone of inhibition at 1000 µg/mL [19] [mm] | zone of inhibition at 1000 µg/mL [20] [mm] | further results
Cc1ccc(C2=CC(c3c(-c4ccccc4)[nH]c4ccccc34)c3c(nc[nH]c3=O)O2)cc1 (stereo not given) | 3 | 3 | 3 | 4 | 2 | 8 | 6 | Active | 3 | 5 | 6 | 8 | 3 | 3 | 11 | 3 | 8 | 3 | 8 | 6 | zone of inhibition at 750 µg/mL [21]: 2 mm; zone of inhibition at 750 µg/mL [22]: 8 mm; zone of inhibition at 750 µg/mL [23]: 3 mm; zone of inhibition at 1000 µg/mL [24]: 2 mm; zone of inhibition at 500 µg/mL [25]: 3 mm
O=c1[nH]cnc2c1C(c1c(-c3ccccc3)[nH]c3ccc(Cl)cc13)C=C(c1ccccc1)O2 (stereo not given) | 13 | 12 | 3 | 3 | 12 | 10 | 9 | Active | 3 | 13 | 9 | 7 | 10 | 10 | 7 | 12 | 10 | 11 | 9 | 9 | zone of inhibition at 750 µg/mL [21]: 12 mm; zone of inhibition at 750 µg/mL [22]: 7 mm; zone of inhibition at 750 µg/mL [23]: 13 mm; zone of inhibition at 1000 µg/mL [24]: 12 mm; zone of inhibition at 500 µg/mL [25]: 12 mm
Cc1ccc2[nH]c(-c3ccccc3)c(C3C=C(c4ccccc4)Oc4[nH]nc(N)c43)c2c1 (stereo not given) | 8 | 9 | 8 | 9 | 6 | 9 | 3 | Active | 8 | 1 | 3 | 5 | 3 | 3 | 3 | 2 | 9 | 3 | 9 | 3 | zone of inhibition at 750 µg/mL [21]: 5 mm; zone of inhibition at 750 µg/mL [22]: 5 mm; zone of inhibition at 750 µg/mL [23]: 8 mm; zone of inhibition at 1000 µg/mL [24]: 5 mm; zone of inhibition at 500 µg/mL [25]: 5 mm
Nc1nc(=O)[nH]c2c1C(c1c(-c3ccccc3)[nH]c3ccc(Cl)cc13)C=C(c1ccccc1)O2 (stereo not given) | 12 | 12 | 5 | 9 | 3 | 3 | 11 | Active | 8 | 9 | 10 | 10 | 10 | 10 | 8 | 10 | 3 | 10 | 3 | 10 | zone of inhibition at 750 µg/mL [21]: 3 mm; zone of inhibition at 750 µg/mL [22]: 10 mm; zone of inhibition at 750 µg/mL [23]: 12 mm; zone of inhibition at 1000 µg/mL [24]: 3 mm; zone of inhibition at 500 µg/mL [25]: 10 mm
Cc1ccc2[nH]c(-c3ccccc3)c(C3C=C(c4ccccc4)OC(N)=C3C#N)c2c1 (stereo not given) | 3 | 8 | 5 | 6 | 5 | 5 | 4 | Active | 5 | 4 | 4 | 9 | 6 | 6 | 10 | 2 | 6 | 5 | 5 | 4 | zone of inhibition at 750 µg/mL [21]: 5 mm; zone of inhibition at 750 µg/mL [22]: 10 mm; zone of inhibition at 750 µg/mL [23]: 4 mm; zone of inhibition at 1000 µg/mL [24]: 5 mm; zone of inhibition at 500 µg/mL [25]: 2 mm
